Target: T1, human BLT1 receptor (Homo sapiens, UniProt Q15722)
T1 construct: expressed in transfected cells; host or cells: HEK293
Assay: BLT-1 cAMP Assay
Format: cell-based
Settings: HEK293 cells recombinantly expressing human BLT1; antagonist activity vs forskolin 4 μM and LTB4 2 nM; cAMP (CisBio kit)
Procedure: The ability of compounds to antagonize the human BLT1 receptor was determined using a kit to measure changes in intracellular cyclic AMP levels (cAMP dynamic assay kit, Cisbio Cat. No. 62AM4PEC). […] The cell suspension was centrifuged at 200×g for 10 min and then resuspended in fresh assay medium to a density of 2.5×10^5 cells/mL. […] All subsequent liquid additions were performed using a BIORAPTR (FRD; Beckman Coulter). Next, 5 μL of cell suspension was added and incubated for 20 min. at 37° C. and 5% CO2 in a humidified plastic tray.
The levels of cAMP were detected using the CisBio kit following the manufacturer's instructions: cAMP-d2 vial was reconstituted with distilled water and then diluted accordingly with conjugate & lysis buffer. 5 µL of cAMP-d2 working solution was added to all of the wells of the assay plate. cAMP-Cryptate vial was reconstituted with distilled water and then diluted accordingly with conjugate & lysis buffer. 5 µL of cAMP-Cryptate working solution were added to the assay plate. The assay plate was shaken for 3 minutes and incubated at room temperature for 45 minutes, then read on Perkin Elmer Envision. cAMP standard curve and fit data were plotted using a 4 parameter dose response curve fitting algorithm to fit curve. […] After normalization to treated and untreated controls, the percent effect of signal at each compound concentration was calculated. The plot of percent effect versus the log of compound concentration was fit with a 4-parameter concentration response equation to calculate EC50 values.

T1 sequence (Q15722 whole entry): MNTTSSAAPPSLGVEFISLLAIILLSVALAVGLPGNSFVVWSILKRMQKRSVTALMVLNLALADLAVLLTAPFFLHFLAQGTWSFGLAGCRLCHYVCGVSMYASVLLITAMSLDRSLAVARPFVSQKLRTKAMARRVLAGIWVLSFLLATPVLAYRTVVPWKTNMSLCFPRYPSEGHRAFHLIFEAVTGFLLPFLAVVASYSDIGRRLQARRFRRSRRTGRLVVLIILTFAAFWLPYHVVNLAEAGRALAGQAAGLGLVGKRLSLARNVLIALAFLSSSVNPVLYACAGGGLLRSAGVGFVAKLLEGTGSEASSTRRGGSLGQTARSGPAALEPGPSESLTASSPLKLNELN

EC50	Structure (SMILES)
320 nM	Cc1cccc(C[C@@H]2COc3cc(-c4ccccc4NS(=O)(=O)C(F)(F)F)ccc3[C@H]2O)n1 (single isomer, unassigned) [Example 63, 1,1,1-Trifluoro-N-(2-{(3,4-trans)-4-hydroxy-3-[(6-methyl-pyridin-2-yl)methyl]-3,4-dihydro-2H-chromen-7-yl}-phenyl)methanesulfonamide]
3080 nM	O=S(=O)(Nc1nnccc1-c1ccc2c(c1)OC[C@@H](Cc1ccccn1)[C@@H]2O)C(F)(F)F (single isomer, unassigned) [Example 90, N-(4-((3,4-trans)-4-hydroxy-3-(pyridin-2-ylmethyl)chroman-7-yl)pyridazin-3-yl)-1,1,1-trifluoromethanesulfonamide]
53 nM	O=S(=O)(Nc1ccccc1-c1ccc2c(c1)OCC(Cc1cccs1)C2O)C(F)(F)F (racemic) [Example 33, 1,1,1-Trifluoro-N-(2-((3,4-rac-trans)-4-hydroxy-3-(thiophen-2-ylmethyl)chroman-7-yl)phenyl)methanesulfonamide]
215 nM	Cc1cccc(C[C@H]2COc3cc(-c4ccccc4NS(=O)(=O)C(F)(F)F)ccc3[C@@H]2O)n1 (racemic) [Example 20, 1,1,1-Trifluoro-N-(2-{(rac-trans)-4-hydroxy-3-[(6-methylpyridin-2-yl)methyl]-3,4-dihydro-2H-chromen-7-yl}phenyl)methanesulfonamide]
826 nM	Cc1nc(C[C@@H]2COc3cc(-c4ccccc4NS(=O)(=O)C(F)(F)F)ccc3[C@H]2O)cs1 (single isomer, unassigned) [Example 56, 1,1,1-Trifluoro-N-(2-{(3R,4S or 3S,4R)-4-hydroxy-3-[(2-methyl-1,3-thiazol-4-yl)methyl]-3,4-dihydro-2H-chromen-7-yl}phenyl)-methanesulfonamide]
1340 nM	O=S(=O)(Nc1ccccc1-c1ccc2c(c1)OC[C@@H](Cc1cccs1)[C@@H]2O)C(F)(F)F (single isomer, unassigned) [Example 61, 1,1,1-trifluoro-N-{2-[(3R,4S or 3S,4R)-4-hydroxy-3-(thiophen-2-ylmethyl)-3,4-dihydro-2H-chromen-7-yl]phenyl}methanesulfonamide]
193 nM	CS(=O)(=O)Nc1ccccc1-c1ccc2c(c1)OC[C@@H](Cc1ccccn1)[C@@H]2O (single isomer, unassigned) [Example 73, N-{2-[(3R,4S or 3S,4R)-4-hydroxy-3-(pyridin-2-ylmethyl)-3,4-dihydro-2H-chromen-7-yl]phenyl}methanesulfonamide]
269 nM	O=S(=O)(Nc1ccccc1-c1ccc2c(c1)OC[C@@H](Cc1cncs1)[C@@H]2O)C(F)(F)F (racemic) [Example 9, 1,1,1-Trifluoro-N-(2-((3,4-rac-trans)-4-hydroxy-3-(thiazol-5-ylmethyl)chroman-7-yl)phenyl)methanesulfonamide]
48 nM	O=S(=O)(Nc1ccccc1-c1ccc2c(c1)OC[C@@H](Cc1ccc(-c3ccccc3)cc1)[C@@H]2O)C(F)(F)F (single isomer, unassigned) [Example 67, N-{2-[(3S,4R or 3R,4S)-3-(biphenyl-4-ylmethyl)-4-hydroxy-3,4-dihydro-2H-chromen-7-yl]phenyl}-1,1,1-trifluoromethanesulfonamide]
1200 nM	CCn1ccc(C[C@@H]2COc3cc(-c4ccccc4NS(=O)(=O)C(F)(F)F)ccc3[C@H]2O)n1 (single isomer, unassigned) [Example 47, N-(2-((3R,4S or 3S,4R)-3-((1-ethyl-1H-pyrazol-3-yl)methyl)-4-hydroxychroman-7-yl)phenyl)-1,1,1-trifluoromethanesulfonamide]
78 nM	CC(c1ccccn1)C1COc2cc(-c3cc(F)ccc3NS(=O)(=O)C(F)(F)F)ccc2C1O (single isomer, unassigned) [Example 102, 1,1,1-trifluoro-N-(4-fluoro-2-(4-hydroxy-3-(1-(pyridin-2-yl)ethyl)chroman-7-yl)phenyl) methanesulfonamide]
9 nM	O=S(=O)(Nc1ccccc1-c1ccc2c(c1)OCC(Cc1ccc(-c3ccccc3)s1)C2O)C(F)(F)F (racemic) [Example 5, 1,1,1-Trifluoro-N-(2-((3,4-rac-trans)-4-hydroxy-3-((5-phenylthiophen-2-yl)methyl)chroman-7-yl)phenyl)methanesulfonamide]
1870 nM	O=S(=O)(CC(F)(F)F)Nc1ncccc1-c1ccc2c(c1)OC[C@@H](Cc1ccccn1)[C@@H]2O (single isomer, unassigned) [Example 78, 2,2,2-Trifluoro-N-(3-((3S,4R or 3R,4S)-4-hydroxy-3-(pyridin-2-ylmethyl)chroman-7-yl)pyridin-2-yl)ethanesulfonamide]
1550 nM	O=S(=O)(Nc1ccccc1-c1ccc2c(c1)OC[C@@H](Cc1nnc(-c3ccc(F)cc3)o1)[C@@H]2O)C(F)(F)F (relative stereo) [Example 44, 1,1,1-Trifluoro-N-(2-((3,4-trans)-3-((5-(4-fluorophenyl)-1,3,4-oxadiazol-2-yl)methyl)-4-hydroxychroman-7-yl)phenyl)methanesulfonamide]
32 nM	Cc1nnc(C[C@H]2COc3cc(-c4ccccc4NS(=O)(=O)C(F)(F)F)ccc3[C@@H]2O)s1 (racemic) [Example 23, 1,1,1-Trifluoro-N-(2-{(rac-trans)-4-hydroxy-3-[(5-methyl-1,3,4-thiadiazol-2-yl)methyl]-3,4-dihydro-2H-chromen-7-yl}phenyl)methanesulfonamide]
64 nM	O=S(=O)(Nc1ccccc1-c1ccc2c(c1)OC[C@H](Cc1cnc(-c3ccccc3)s1)[C@H]2O)C(F)(F)F (single isomer, unassigned) [Example 43, 1,1,1-Trifluoro-N-(2-((3R,4S or 3S,4R)-4-hydroxy-3-((2-phenylthiazol-5-yl)methyl)chroman-7-yl)phenyl)methanesulfonamide]
2140 nM	O=S(=O)(Nc1ccccc1-c1ccc2c(c1)OC[C@H](Cc1cccnn1)[C@H]2O)C(F)(F)F (racemic) [Example 28, 1,1,1-Trifluoro-N-{2-[(rac-trans)-4-hydroxy-3-(pyridazin-3-ylmethyl)-3,4-dihydro-2H-chromen-7-yl]phenyl}methanesulfonamide]
6 nM	O=S(=O)(Nc1ccccc1-c1ccc2c(c1)OC[C@@H](Cc1ccc(-c3ccccc3)cc1)[C@@H]2O)C(F)(F)F (racemic) [Example 4, N-(2-((3,4-Rac-trans)-3-([1,1′-biphenyl]-4-ylmethyl)-4-hydroxychroman-7-yl)phenyl)-1,1,1-trifluoromethanesulfonamide]
185 nM	Cn1nccc1CC1COc2cc(-c3ccccc3NS(=O)(=O)C(F)(F)F)ccc2C1O (racemic) [Example 13, 1,1,1-Trifluoro-N-(2-((3,4-rac-trans)-4-hydroxy-3-((1-methyl-1H-pyrazol-5-yl)methyl)chroman-7-yl)phenyl)methanesulfonamide]
285 nM	O=S(=O)(CC(F)(F)F)Nc1ncc(C(F)(F)F)nc1-c1ccc2c(c1)OC[C@@H](Cc1ccccn1)[C@@H]2O (single isomer, unassigned) [Example 88, 2,2,2-Trifluoro-N-(3-((3,4-trans)-4-hydroxy-3-(pyridin-2-ylmethyl)chroman-7-yl)-5-(trifluoromethyl)pyrazin-2-yl)ethanesulfonamide]
965 nM	O=S(=O)(Nc1nnc(Cl)cc1-c1ccc2c(c1)OC[C@H](Cc1ccccn1)[C@H]2O)C(F)(F)F (single isomer, unassigned) [Example 89, N-(6-chloro-4-((3R,4S or 3S,4R)-4-hydroxy-3-(pyridin-2-ylmethyl)chroman-7-yl)pyridazin-3-yl)-1,1,1-trifluoromethanesulfonamide]
44 nM	O=S(=O)(Nc1ccccc1-c1ccc2c(c1)OCC(Cc1cc3ccccc3s1)C2O)C(F)(F)F (racemic) [Example 34, N-(2-((3,4-rac-trans)-3-(benzo[b]thiophen-2-ylmethyl)-4-hydroxychroman-7-yl)phenyl)-1,1,1-trifluoromethanesulfonamide]
63 nM	O=S(=O)(CC(F)(F)F)Nc1ncc(F)cc1-c1ccc2c(c1)OC[C@@H](Cc1ccccn1)[C@@H]2O (single isomer, unassigned) [Example 85]
1 nM	CC(c1ccccn1)C1COc2cc(-c3cc(F)ccc3NS(=O)(=O)C(F)(F)F)ccc2C1O (centres unmarked) [Example 99, 1,1,1-trifluoro-N-(4-fluoro-2-(4-hydroxy-3-(1-(pyridin-2-yl)ethyl)chroman-7-yl)phenyl) methanesulfonamide]
1430 nM	CC(C)(C)c1nc(C[C@@H]2COc3cc(-c4ccccc4NS(=O)(=O)C(F)(F)F)ccc3[C@H]2O)cs1 (relative stereo) [Example 45, N-(2-((3,4-trans)-3-((2-(tert-butyl)thiazol-4-yl)methyl)-4-hydroxychroman-7-yl)phenyl)-1,1,1-trifluoromethanesulfonamide]
235 nM	CC1(S(=O)(=O)Nc2ccccc2-c2ccc3c(c2)OCC(Cc2ccccn2)C3O)CC1 (single isomer, unassigned) [Example 75, N-(2-((3,4-trans)-4-hydroxy-3-(pyridin-2-ylmethyl)chroman-7-yl)phenyl)-1-methylcyclopropane-1-sulfonamide]
